Bridge positions count the residues as written; N and C are the ends. Ends that are not written are not given here.
Key:
C. albicans SC5314 [1] = test: Murine in vivo model of disseminated candidiasis: survival and body weight; settings: for survival efficacy: 30 days p.i.; for survival as efficacy metric compared with Cyclic Peptide 5: candidemia model, FIGS. 10 to 15; for survival by end point analysis compared with fluconazole: χ^2 analysis at day 30 p.i.; for survival of treated mice compared to saline controls, log-rank P: observed 26 days p.i.; for survival of treated mice compared to saline controls, log-rank P / survival efficacy compared with 5 mg/kg fluconazole: FIG. 9; for survival efficacy compared with 5 mg/kg fluconazole: 0.25 mg/kg Cyclic Peptide 5, 5 mg/kg RTD-1
Protocol: Mice were infected i.v. at T=0 with 3×10^5 blastospores of C. albicans genetically defined reference strain SC5314.
Mice were infected i.v. at T=0 with 3×10^5 blastospores of C. albicans SC5314. At T=24 h, mice were treated i.p. daily for 7 d w.
In activity studies the synthetic cyclic tetradecapeptide Cyclic Peptide 5 (SEQ ID NO. 6), which was identified initially as having significant antifungal activity, was used as a model peptide. Briefly, 7-8 week old, immunocompetent, female BALB/c mice were challenged i.v. at T=0 with 3×10^5 CFU of C. albicans SC5314. […]
Under these test protocols C. albicans-infected mice treated with saline presented with ruffled fur and significant weight loss, and became moribund within 5-10 days, by which time there was >30% body weight loss.

C. albicans SC5314 [2] = test: Renal fungal burden in kidney homogenates, murine disseminated candidiasis model; assay type: in vivo; settings: FIG. 16; for renal fungal burden compared with fluconazole / renal fungal burden compared with fluconazole, P (Fisher's LSD test): long term survivors 30 days p.i.
From the text: In activity studies the synthetic cyclic tetradecapeptide Cyclic Peptide 5 (SEQ ID NO. 6), which was identified initially as having significant antifungal activity, was used as a model peptide. Briefly, 7-8 week old, immunocompetent, female BALB/c mice were challenged i.v. at T=0 with 3×10^5 CFU of C. albicans SC5314.

[3] = tested on: susceptible and multiple drug resistant strains of C. albicans; settings: long term, on treatment with RTD-1; cited from earlier work
C. albicans = settings: cited from earlier work
[4] = 5 mg/kg i.p. daily for 7 d from T=24 h

Row | Molecule | survival as efficacy metric compared with Cyclic Peptide 5 (C. albicans SC5314 [1]) | survival by end point analysis compared with fluconazole (C. albicans SC5314 [1]) | renal fungal burden compared with fluconazole (C. albicans SC5314 [2]) | renal fungal burden compared with fluconazole, P (Fisher's LSD test) (C. albicans SC5314 [2]) | survival of treated mice compared to saline controls, log-rank P (C. albicans SC5314 [1]; [4]) | further results
1 | Cyclic Peptide 3: synthetic cyclic tetradecapeptide θ-defensin analog; positions 3-14,1,2: C I C R R R V C I C R R G V (GVCICRRRVCICRR; cyclic backbone; Cyclic Peptide 3) | equivalent or superior to Cyclic Peptide 5 | more effective than fluconazole | reduced fungal burden to a greater extent than fluconazole | 7.4×10^−3 |  | survival efficacy (C. albicans SC5314 [1]; 0.1 mg/kg i.p. daily for 7 d): effective
2 | CC[C@H](C)C[C@H](C)CCCCCCCCC(=O)N[C@H]1C[C@@H](O)[C@@H](NCCN)NC(=O)[C@@H]2[C@@H](O)CCN2C(=O)[C@H]([C@H](O)CCN)NC(=O)[C@H]([C@H](O)[C@@H](O)c2ccc(O)cc2)NC(=O)[C@@H]2C[C@@H](O)CN2C(=O)[C@H]([C@@H](C)O)NC1=O [Caspofungin, caspofungin, reference compound] |  |  |  |  | 3.4×10^−6 | 
3 | Cyclic Peptide 5: model synthetic cyclic tetradecapeptide θ-defensin analog; positions 3-14,1,2: C I C R R R F C L C R R G V (GVCICRRRFCLCRR; cyclic backbone; Cyclic Peptide 5) |  |  | reduced fungal burden to a greater extent than fluconazole | 3×10^−3 |  | survival efficacy compared with 5 mg/kg fluconazole (C. albicans SC5314 [1]): more effective than 5 mg/kg of fluconazole; survival efficacy compared with RTD-1 (C. albicans SC5314 [1]; 0.25 mg/kg Cyclic Peptide 5 vs 5 mg/kg RTD-1, i.p. once a day for 7 days, BALB/c mice): more effective than 5 mg/kg of RTD-1; survival of treated mice compared to saline controls, log-rank P (C. albicans SC5314 [1]; 0.25 mg/kg i.p. daily for 7 d from T=24 h): 2.3×10^−7; survival efficacy (FIG. 10) (C. albicans SC5314 [1]; 0.25 mg/kg or 0.1 mg/kg, results similar to treatment with saline): relatively ineffective
4 | Cyclic Peptide 2: synthetic cyclic tetradecapeptide θ-defensin analog; positions 3-14,1,2: C S C R R R F C I C R R G V (cyclo(GVCSCRRRFCICRR); disulfide 5-10, 3-12) | equivalent or superior to Cyclic Peptide 5 |  |  |  |  | 
5 | Cyclic Peptide 4: synthetic cyclic tetradecapeptide θ-defensin analog; positions 3-14,1,2: C I C R R R A C L C R R G L (GLCICRRRACLCRR; cyclic backbone; Cyclic Peptide 4) | equivalent or superior to Cyclic Peptide 5 | more effective than fluconazole | reduced fungal burden to a greater extent than fluconazole | 0.02 |  | survival efficacy (C. albicans SC5314 [1]; 0.25 mg/kg i.p. daily for 7 d): effective
6 | Cyclic Peptide 1: synthetic cyclic tetradecapeptide θ-defensin analog; positions 3-14,1,2: C S C R R R F C L C R R G V (GVCSCRRRFCLCRR; cyclic backbone; Cyclic Peptide 1) | equivalent or superior to Cyclic Peptide 5 | more effective than fluconazole | reduced fungal burden to a greater extent than fluconazole | 3.5×10^−5 |  | survival efficacy (C. albicans SC5314 [1]; 0.1 mg/kg i.p. daily for 7 d): effective; survival efficacy (C. albicans SC5314 [1]; 0.25 mg/kg i.p. daily for 7 d): effective
7 | OC(Cn1cncn1)(Cn1cncn1)c1ccc(F)cc1F [Fluconazole, fluconazole, reference compound] |  |  |  |  | 3.4×10^−6 | renal fungal burden (C. albicans SC5314 [2]; 5 mg/kg, long term survivors 30 days p.i. vs moribund saline controls): reduced fungal burden
8 | Cyclic Peptide 6: synthetic cyclic tetradecapeptide θ-defensin analog; positions 3-14,1,2: C R C R R G V C R C R R G V (GVCRCRRGVCRCRR; not fully specified (bridges); ends and bridges not checked; also: cyclic (type not given here)) | equivalent or superior to Cyclic Peptide 5 | more effective than fluconazole |  |  |  | survival compared with fluconazole and Cyclic Peptide 5 (C. albicans SC5314 [1]; peptides at 0.25 mg/kg, FIG. 15): survival that exceeded that of both a prior art antifungal drug (fluconazole) and Circular Peptide 5
9 | RTD-1: naturally occurring θ-defensin of rhesus monkeys, cyclic octadecapeptide with 3 disulfide bonds (cyclo(GFCRCLCRRGVCRCICTR); disulfide (positions not given here); not fully specified (bridges); also: three disulfide bonds, pairing not given here; listed as Macaca mulatta) |  |  |  |  | 3.4×10^−6 | pro-inflammatory cytokine production in vivo [3]: reduction in long term production of pro-inflammatory cytokines; survival efficacy compared with 5 mg/kg fluconazole (C. albicans SC5314 [1]): more effective than 5 mg/kg of fluconazole; in vitro antifungal activity in presence of serum (C. albicans; presence of serum): abolished by the presence of serum; in vitro active concentration relative to concentrations effective in vivo (C. albicans; vs murine animal model studies): ≥ 50 fold
